US12448394B2, “Heterocyclic pyrazole derivatives as type III receptor tyrosine kinase inhibitors” (DEVELOPMENT CENTER FOR BIOTECHNOLOGY, priority 2019, dated 2025)

Legend:
FLT3 kinase = target: T1, FLT3 kinase (Homo sapiens, UniProt P36888); assay: FLT3 kinase assay (AlphaScreen); assay type: biochemical; details: read-out: Ranking of IC50 values, FLT3
T1 construct: purchased SignalChem
T1 sequence (P36888 27-993): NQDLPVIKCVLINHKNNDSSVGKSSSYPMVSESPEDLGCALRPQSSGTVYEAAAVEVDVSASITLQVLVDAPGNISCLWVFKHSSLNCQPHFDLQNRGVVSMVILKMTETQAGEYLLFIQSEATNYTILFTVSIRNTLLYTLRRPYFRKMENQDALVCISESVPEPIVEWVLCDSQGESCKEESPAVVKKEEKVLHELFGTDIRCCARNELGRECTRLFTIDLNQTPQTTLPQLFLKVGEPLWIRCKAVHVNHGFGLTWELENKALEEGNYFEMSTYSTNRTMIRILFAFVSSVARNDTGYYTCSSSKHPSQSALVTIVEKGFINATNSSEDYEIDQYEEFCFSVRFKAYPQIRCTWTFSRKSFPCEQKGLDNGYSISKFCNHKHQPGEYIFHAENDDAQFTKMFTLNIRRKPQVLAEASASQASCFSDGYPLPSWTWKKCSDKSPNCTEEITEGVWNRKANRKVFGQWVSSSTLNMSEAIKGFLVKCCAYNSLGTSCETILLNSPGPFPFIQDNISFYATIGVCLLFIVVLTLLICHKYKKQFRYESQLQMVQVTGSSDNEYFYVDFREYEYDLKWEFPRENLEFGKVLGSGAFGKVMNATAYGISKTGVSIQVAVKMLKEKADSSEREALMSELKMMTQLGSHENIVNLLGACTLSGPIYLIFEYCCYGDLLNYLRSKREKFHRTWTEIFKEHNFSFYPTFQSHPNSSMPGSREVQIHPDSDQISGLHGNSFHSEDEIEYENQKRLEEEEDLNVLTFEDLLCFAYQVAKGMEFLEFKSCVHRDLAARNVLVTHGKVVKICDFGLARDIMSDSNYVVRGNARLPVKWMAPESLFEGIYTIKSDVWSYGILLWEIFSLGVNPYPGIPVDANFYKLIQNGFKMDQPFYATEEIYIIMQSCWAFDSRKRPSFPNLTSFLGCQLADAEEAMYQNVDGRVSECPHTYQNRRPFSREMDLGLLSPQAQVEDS
Summary of the method: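 Recombinant FLT3 (1.5 ng) phosphorylated biotinylated poly(Glu4:Tyr1) with 10 μM ATP in MOPS pH 7.0 buffer containing 10 mM MgCl2, 30 min at 30 °C, stopped with EDTA. Product detected by AlphaScreen; IC50 from duplicate serial dilutions.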

[1] = tested on: phosphorylation of FLT3 and its down-stream effector STAT5; assay: Western blotting of p-FLT3 and p-STAT5 in MV4-11 cells; assay type: cell-based; details: Homo sapiens; at 30 nM treatment, 3 hours, FLT3-ITD positive MV4-11 leukemia cells; read-out: inhibition activity against phosphorylation of FLT3 and its down-stream effector STAT5
Summary of the method: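 MV4-11 cells held overnight in IMDM with 0.1% FBS, then 3 million cells treated with compound for 3 h. Whole lysates immunoblotted for p-FLT3 (Tyr-591), p-STAT5 (Tyr-694) and actin. Band intensities at 30 nM compared to DMSO control; % inhibition = (1 − relative intensity) × 100.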

MET kinase = target: T2, MET kinase (Homo sapiens, UniProt P08581); assay: MET kinase assay (AlphaScreen, counter screen); assay type: biochemical; details: read-out: Ranking of IC50 values, MET
T2 construct: purchased SignalChem
Summary of the method: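 Recombinant MET kinase (1 ng) phosphorylated biotinylated poly(Glu4:Tyr1) with […] ATP (so in the source) in MOPS pH 7.0 buffer with 10 mM MgCl2, 45 min at 30 °C, stopped with EDTA. Product read by AlphaScreen; IC50 from serial dilutions run in duplicate.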

T2 sequence (P08581 25-1390): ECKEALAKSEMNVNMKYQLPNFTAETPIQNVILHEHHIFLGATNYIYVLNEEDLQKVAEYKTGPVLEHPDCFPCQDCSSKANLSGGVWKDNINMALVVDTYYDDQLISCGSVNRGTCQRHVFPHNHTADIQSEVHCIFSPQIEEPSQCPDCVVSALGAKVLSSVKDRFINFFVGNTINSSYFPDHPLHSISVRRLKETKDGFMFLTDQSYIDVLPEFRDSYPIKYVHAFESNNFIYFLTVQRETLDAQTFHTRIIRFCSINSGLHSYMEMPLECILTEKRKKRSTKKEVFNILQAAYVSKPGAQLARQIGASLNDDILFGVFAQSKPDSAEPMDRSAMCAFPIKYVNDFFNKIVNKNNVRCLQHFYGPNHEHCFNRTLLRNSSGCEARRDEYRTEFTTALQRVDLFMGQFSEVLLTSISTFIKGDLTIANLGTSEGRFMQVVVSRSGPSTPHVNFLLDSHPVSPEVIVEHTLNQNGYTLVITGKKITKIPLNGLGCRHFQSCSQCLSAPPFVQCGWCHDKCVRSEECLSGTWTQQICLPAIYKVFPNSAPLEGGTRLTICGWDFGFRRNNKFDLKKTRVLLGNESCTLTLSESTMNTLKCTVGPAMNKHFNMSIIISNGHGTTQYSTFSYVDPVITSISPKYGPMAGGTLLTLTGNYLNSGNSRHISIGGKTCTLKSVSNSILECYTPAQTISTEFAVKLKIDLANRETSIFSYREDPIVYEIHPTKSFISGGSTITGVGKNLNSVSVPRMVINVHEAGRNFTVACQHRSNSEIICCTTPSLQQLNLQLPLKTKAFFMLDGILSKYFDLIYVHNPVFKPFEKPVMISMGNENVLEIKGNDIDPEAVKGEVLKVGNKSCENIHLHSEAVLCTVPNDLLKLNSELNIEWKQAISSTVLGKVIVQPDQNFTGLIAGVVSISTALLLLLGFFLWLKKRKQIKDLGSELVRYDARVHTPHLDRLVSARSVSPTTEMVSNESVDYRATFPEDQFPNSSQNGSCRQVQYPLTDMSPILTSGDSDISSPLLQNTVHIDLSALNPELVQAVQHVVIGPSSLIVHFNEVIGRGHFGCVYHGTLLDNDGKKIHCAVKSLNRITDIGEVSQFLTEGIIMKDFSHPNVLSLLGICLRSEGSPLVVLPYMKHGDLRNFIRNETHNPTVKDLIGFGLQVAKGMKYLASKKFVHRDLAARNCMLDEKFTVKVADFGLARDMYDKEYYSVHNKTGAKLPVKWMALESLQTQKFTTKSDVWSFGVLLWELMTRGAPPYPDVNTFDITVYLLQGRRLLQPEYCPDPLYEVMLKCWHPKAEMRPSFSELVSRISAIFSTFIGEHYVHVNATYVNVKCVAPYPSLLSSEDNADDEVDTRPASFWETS

IC50 (FLT3 kinase) [nM] | IC50 (MET kinase) [nM] | SMILES | inhibition at 0.03 µM [1] [%]
< 1 | > 1000 | Cn1ncc2ccc(-c3n[nH]c4c3Cc3sc(-c5ccc(N)nc5)cc3-4)cc21 [Compound 92, 5-(3-(1-methyl-1H-indazol-6-yl)-1,4-dihydro-thieno[2′,3′:4,5]cyclopenta [1,2-c]pyrazol-6-yl) pyridin-2-amine] | > 50
< 1 | 300 to 1000 | CN(C)Cc1ccc(-c2cc3c(s2)Cc2c(-c4ccc5cnn(C)c5c4)n[nH]c2-3)cc1 [Compound 94, N,N-dimethyl-1-(4-(3-(1-methyl-1H-indazol-6-yl)-1,4-dihydrothieno [2′,3′:4,5]cyclopenta [1,2-c]pyrazol-6-yl)phenyl)methanamine] | > 50
